The source of these data is US7781565B2 (priority 2006, dated 2010).

This test concerns NCI-60 cell lines. The test is classed as cell-based, human.

In the case of RGSRLPA, the “Cell Line with which the peptide (and its tripeptide motif) is associated” value (shortened to “Cell Line with which the peptide”) is “EKVX-Lung”.

Turning to VLTRAST, the “Cell Line (NCI-60 cell line the peptide is associated with)” value is listed as “HCC-2998-Colon”.

As to LGRVHVW, the “Cell Line (NCI-60 cell line the peptide is associated with)” value is listed as “HT-29 Colon”.

As for GLRGVVK, the “Cell Line (NCI-60 cell line the peptide is associated with)” value was “HCT-116 Colon”.

ARRGSGL: the “Cell Line (NCI-60 cell line the peptide and its motif are associated with)” value is on record as “MALME-3M Melanoma”; the “Cell Line (NCI-60 cell line the peptide is associated with)” value is given as “MALME-3M Melanoma”.

Take FRASSEV: the “Cell Line with which the peptide” value was “Hop-62-Lung”.

As for LTGGLVF, the “Cell Line (NCI-60 cell line the peptide and its motif are associated with)” value is “DU-145 Prostate”.

Turning to GRVKPGA, the “Cell Line (NCI-60 cell line the peptide and its motif are associated with)” value is given as “DU-145 Prostate”.

On to FRFVRGS, for which the “Cell Line the peptide is associated with (peptide recovered from phage library selection on this NCI-60 cell line)” value is “HS 578 T Breast”.

On to EWHAASG, for which the “Cell Line (NCI-60 cell line the peptide and its motif are associated with)” value was “SK-MEL-2 Melanoma”.

For the substance APGRLGP, the “Cell Line (NCI-60 cell line the peptide and its motif are associated with)” value was “OVCAR-4 Ovarian”.

Regarding REEFAGR, the “Cell Line with which the peptide” value was “SR Leukemia”.

Take RGLVRVV: the “Cell Line (NCI-60 cell line the peptide is associated with)” value is recorded as “COLO-205-Colon”.

As for AAVGGRV, the “Cell Line (NCI-60 cell line the peptide and its motif are associated with)” value is given as “M14 Melanoma”.

In the case of ANASGVR, the “Cell Line (NCI-60 cell line the peptide and its motif are associated with)” value was “M14 Melanoma”.

Turning to LGVREVG, the “Cell Line the peptide is associated with (peptide recovered from phage library selection on this NCI-60 cell line)” value is on record as “HS 578 T Breast”.

SIGPSTN: the “Cell Line with which the peptide” value is “H460-Lung”.

For LLSVTSX, the “Cell Line the peptide is associated with (peptide recovered from phage library selection on this NCI-60 cell line)” value was “SN12C Renal”.

In the case of DGSVLVE, the “Cell Line with which the peptide” value is given as “Molt-4-Leukemia”.

Consider VGPSVHL, for which the “Cell Line (NCI-60 cell line the peptide and its motif are associated with)” value is given as 786-0 Renal.

Take PRGGRVA: the “Cell Line with which the peptide” value is given as “Hop-92-Lung”.

Turning to DVETRGS, the “Cell Line with which the peptide” value is reported as “CCRF-CEM Leukemia”.

Regarding GVSIRQL, the “Cell Line with which the peptide” value is “H460-Lung”.

In the case of HAAVEPS, the “Cell Line (NCI-60 cell line the peptide and its motif are associated with)” value is listed as “OVCAR-5 Ovarian”.

PPPWGLR: the “Cell Line with which the peptide” value was “K-562-Leukemia”.

As to SGAGAAF, the “Cell Line (NCI-60 cell line the peptide and its motif are associated with)” value was 786-0 Renal.

Turning to SGVSNPG, the “Cell Line the peptide is associated with (peptide recovered from phage library selection on this NCI-60 cell line)” value is “MDA-MB-231 Breast”.

In the case of VTDGAGQ, the “Cell Line (NCI-60 cell line the peptide is associated with)” value was “SF-268 CNS”.

As for SGPGRLP, the “Cell Line (NCI-60 cell line the peptide and its motif are associated with)” value was “M14 Melanoma”.

Consider WGSVAGI, for which the “Cell Line (NCI-60 cell line the peptide is associated with)” value is “SNB-75 CNS”.

Consider GAGSISD, for which the “Cell Line with which the peptide” value is reported as “RPMI-8226-Leukemia”.

As to TLVLGGS, the “Cell Line with which the peptide” value is recorded as “Hop-92-Lung”.

In the case of LLSLDPG, the “Cell Line (NCI-60 cell line the peptide and its motif are associated with)” value is reported as “SK-MEL-2 Melanoma”.

As to SLRGSEG, the “Cell Line with which the peptide” value is “Hop-92-Lung”.

On to IRVSAVV, for which the “Cell Line the peptide is associated with (peptide recovered from phage library selection on this NCI-60 cell line)” value is reported as “HS 578 T Breast”.

With FLLSRSA, the “Cell Line the peptide is associated with (peptide recovered from phage library selection on this NCI-60 cell line)” value is recorded as “NCI/ADR-RES Breast”.

For the substance SAGVSDS, the “Cell Line (NCI-60 cell line the peptide and its motif are associated with)” value is recorded as “SK-MEL-2 Melanoma”.

On to GGSRNRW, for which the “Cell Line with which the peptide” value was “H226-Lung”.

LVGRGVR: the “Cell Line (NCI-60 cell line the peptide is associated with)” value is on record as “SF-268 CNS”.

For GGRVLGQ, the “Cell Line (NCI-60 cell line the peptide and its motif are associated with)” value is on record as “OVCAR-4 Ovarian”.

Regarding EPDGVRS, the “Cell Line with which the peptide” value was “CCRF-CEM Leukemia”.

With TTQLRGV, the “Cell Line (NCI-60 cell line the peptide and its motif are associated with)” value is given as “UACC62 Melanoma”.

For GTLGVLS, the “Cell Line (NCI-60 cell line the peptide and its motif are associated with)” value is given as “UACC62 Melanoma”.

In the case of LRVSNPR, the “Cell Line (NCI-60 cell line the peptide and its motif are associated with)” value is given as “UACC62 Melanoma”.

As to GAGGVDV, the “Cell Line (NCI-60 cell line the peptide and its motif are associated with)” value is 786-0 Renal.
